The values below come from patent US4544512A, “Tridecyloxy- or tetradecyloxy-propane derivatives” (Takeda Chemical Industries, Ltd., priority 1980, dated 1985).

Experiment [1] relates to Trichophyton mentagrophytes IFO (DT-66). As to the kind of experiment: Antitrichophyton activity, serial dilution method (MIC). In kind it is cell-based. The note with it: Sabouraud's agar medium. The procedure:
(§1) Referring to the antitrichophyton activity shown in Table 7, MIC values of tested compounds were determined by the serial dilution method using Sabouraud's agar medium.

The subject of experiment [2] is Trichophyton rubrum IFO 5467 (DT-63). The description is as above. The format is cell-based. The note with it: IFO5467, Sabouraud's agar medium. The procedure:
as §1

In experiment [3] the test system is spontaneous myeloid leukemia M1 cells. The experiment in a line: Growth inhibition of cultured spontaneous mouse myeloid leukemia M1 cells (GD50). In kind it is cell-based, mice (SL-strain). To be noted: for IC50: Mus musculus, 72 h, 3 days, 37° C., Trypan Blue dye-exclusion, M1 Resistant clone; for B/A (GD50 normal bone marrow cells / GD50 M1 cells): ratio of GD50 values, 4320 min. The procedure: (§2) BALB/c mice at a concentration of 1 μg/ml (Cancer Res. 39, pp. 4681-4686 (1979)). The present inventors conducted comparative tests between octadecyl phospholipid and the corresponding tridecyl compound as well as tetradecyl compound on the activity (GD50) to inhibit the multiplication of spontaneous myeloid leukemia cells M1 in mice. […] The effect on the corresponding normal cells, i.e. on the myeloid cells of normal mice, is far weaker in the tetradecyl compounds. Therefore, in view of the balance of the inhibiting activity against multiplication of tumor cells and the safety (Chemotherapy Coefficient), it can be said that tetradecyl phospholipid is preferable to octadecyl phospholipid.
(§3) By employing Eagle's minimum essential medium supplemented with 10% heat-inactivated calf serum, incubation of spontaneous myeloid leukemia M1 cells (Resistant clone) harvested from mice (SL-strain) and normal bone marrow cells of mice of the same strain was conducted, in the presence or absence of the test compound in various concentrations, in a humified CO2 incubator at 37° C. for 3 days. The number of viable cells was determined by the Trypan Blue Stain dye-exclusion test. The concentration of the tested compound for 50% inhibiting the proliferation of M1 cells or normal bone marrow cells (GD50) was determined, and the result was shown in Table 1.

A further experiment has as its system normal bone marrow cells. As to the kind of experiment: Growth inhibition of normal mouse bone marrow cells (GD50). In kind it is cell-based, mice (SL-strain). To be noted: Bone marrow cell, 72 h, 3 days, 37° C., Trypan Blue dye-exclusion, read-out: GD50 Normal mouse bone marrow cells (B). How it is done:
as §2, §3

In experiment [4] the test system is human promyelocytic leukemia HL-60 cells. As to the kind of experiment: Induced differentiation of human promyelocytic leukemia HL-60 cells. To be noted: six day incubation; optimal dose: C00021 1 μg/ml, drawing 22 4 μg/ml. In kind it is cell-based. How it is done:
By employing soft-agar medium, incubation of human promyelocytic leukemia HL-60 cells was conducted in the presence of a drug at its optimal concentration. It was observed that the leukemia HL-60 cells were gradually changing into mature myeloid cells or phagocytic cells as the induced differentiation proceeded. After six day incubation, number of these cells was counted, and the respective ratios (%) relative to the total number of these cells were calculated, as shown in Table 3. Additionally stating, these changes were not observed under the conditions devoid of the drugs.

Converted amounts (≈) assume the structure as drawn.

Regarding `CCCCCCCCCCCCOCC(COP(=O)([O-])OCC[N+](C)(C)C)OC` (stereo not shown) [R = C12 H25, A = drawing 32, reference compound], the MIC in experiment [1] worked out at 25 µg/mL (≈ 56.9 µM); in experiment [2], 6.25 µg/mL (≈ 14.2 µM).
`CCCCCCCCCCCCCOCC(COP(=O)([O-])OCC[N+](C)(C)C)OC` (stereo not shown) [R = C13 H27, A = drawing 33]: the values for the minimum inhibitory concentration (MIC) in experiment [1] and in experiment [2] were 6.25 µg/mL (≈ 13.8 µM) and 3.12 µg/mL (≈ 6.88 µM), respectively.
For the compound `CCCCCCCCCCCCCOCC(COP(=O)([O-])OCC[n+]1ccccc1)OC` (stereo not shown) [R = C13 H27, A = drawing 34], the figures for the MIC in experiment [1] and in experiment [2] were 12.5 µg/mL (≈ 26.4 µM) and 3.12 µg/mL (≈ 6.59 µM), respectively.
`CCCCCCCCCCCCCCOCC(COP(=O)([O-])OCC[N+](C)(C)C)OC` (stereo not shown) [R = C14 H29, A = drawing 35]: the figures for the minimal inhibitory concentration (MIC) in experiment [1] and in experiment [2] were 3.12 µg/mL (≈ 6.67 µM) and 1.56 µg/mL (≈ 3.34 µM), respectively.
Regarding `CCCCCCCCCCCCCCOCC(COP(=O)([O-])OCC[n+]1ccccc1)OC` (stereo not shown) [R = C14 H29, A = drawing 36], the results for the minimal inhibitory concentration (MIC) in experiment [1] and in experiment [2] were 3.12 µg/mL (≈ 6.4 µM) and 1.56 µg/mL (≈ 3.2 µM), respectively.
For the compound `CCCCCCCCCCCCCCCCCCOCC(COP(=O)([O-])OCC[N+](C)(C)C)OC` (stereo not shown) [drawing 17, reference compound], the IC50 came to 0.6 µg/mL (≈ 1.15 µM) in experiment [3] and 15 µg/mL (≈ 28.6 µM) in the experiment on normal bone marrow cells. Also, the “B/A (GD50 normal bone marrow cells / GD50 M1 cells)” value in experiment [3] is 25.
In the case of `CCCCCCCCCCCCCCOCC(COP(=O)([O-])OCC[N+](C)(C)C)OC` (stereo not shown) [drawing 18], the IC50 in experiment [3] came out at 1.2 µg/mL (≈ 2.57 µM); with normal bone marrow cells, 40 µg/mL (≈ 85.5 µM). In experiment [3], the “B/A (GD50 normal bone marrow cells / GD50 M1 cells)” value stood at 33.
As for `CCCCCCCCCCCCCCOCC(COP(=O)([O-])OCC[N+](C)(C)C)OC` (stereo not shown) [drawing 22], in experiment [4], the Mature myeloid cells is listed as 91.3%, the “NBT (nitro blue tetrazolium) reduction” value is 87.0% and the Phagocytic cells was 68.2%.
